{
  "source": "paper PMC6441926",
  "about": "(Molecular Oncology, 2019)",
  "key": {"H1975 cells": {"test_system": "H1975 cells", "assay": "CCK-8 cell viability assay, H1975", "assay_type": "cell-based", "conditions": "Homo sapiens, NCI-H1975; CCK-8, 48 h, EGFR L858R/T790M", "protocol": "(§1) Cell proliferation was measured by Cell Counting Kit‐8 (CCK‐8) assay (Bestbio, Shanghai, China). Cells were cultured in 96‐well plates at a concentration of 7 × 10^3/well for 24 h. If necessary, cells were pretreated with 25 or 50 μM of Z‐VAD‐FMK for 4 h. Then cells were treated with indicated concentrations of compounds for 48 h. Supernatant was totally removed and 100 μL of CCK‐8 solution was added to each well and cultured for another 2 h at 37 °C. Cell viability was quantified using a SpectraMax M2e (Molecular Devices, San Jose, CA, USA) at 450 nm. Cell viability was calculated for each well as (absorbance 450 nm of treated cells/absorbance 450 nm of control cells) × 100%. Assays were performed on three independent experiments."}, "Mcl-1": {"test_system": "Mcl-1", "assay": "Western blot of Mcl-1 protein level in A549 cells", "assay_type": "cell-based", "conditions": "8 h", "quoted_text": "After treated with different concentrations of compounds, total proteins were extracted using RIPA lysing buffer. […] The membranes were blocked with 5% non‐fat milk at room temperature for 1 h, and then incubated with primary antibodies overnight at 4 °C. After washing with Tris buffered saline with Tween 20 (TBST), membranes were incubated with secondary antibodies at room temperature for another 1 h. The protein bands were visualized by adding ECL system WBKLS0050 (EMD Millipore, Billerica, MA, USA) and analyzed using Bio‐Rad Laboratories Quantity One software (Bio‐Rad)."}, "A549 cells": {"test_system": "A549 cells", "assay": "CCK-8 cell viability assay, A549", "assay_type": "cell-based", "conditions": "for IC50: Homo sapiens, A549, CCK-8, 48 h, EGFR wild-type", "protocol": "as §1, with “Then cells were treated with indicated concentrations of compounds for 48 h.” left out"}, "[1]": {"test_system": "primary lung cancer cells", "assay": "Collagen gel droplet embedded 3D-culture (CD-DST) of primary lung cancer cells", "assay_type": "cell-based", "conditions": "Homo sapiens; 15 primary lung cancer samples, 4 μM for 24 h, then cultured another 5 days, neutral red; read-out: viable cell percentage", "protocol": "Collagen gel droplet embedded 3D‐culture system (CD‐DST) system was performed using a Tumor chemo‐sensitivity assay kit provided by Guangzhou Darui Biotechnology Co., Ltd (Guangzhou, China) (Hou et al., 2017). Briefly, 0.1–0.5 g freshly dissected human lung cancer tissues were digested by trypsin and incubated in collagen gel‐coated flasks. Then, cells were collected and incubated in a collagen gel droplet at the density of 4000 cells per droplet (the volume of each droplet was 30 μL). […] Cells were visualized by neutral red stain and observed using cell analysis system DR6690 (Guangzhou Darui Biotechnology Co., Ltd). Survival rates were calculated as (absorbance 540 nm of treatment group/absorbance 540 nm of control group) × 100%.\nTable S2. Cell viability of 15 primary lung cancer cells after treatment with 4 μM of compounds for 24 h, and cultured for another 120 h before neutral red stain and fixation. Cell viability was calculated observed using specific cell analysis system DR6690 (Guangzhou Darui Biotechnology Co., Ltd, Guangzhou, China). Survival rates were calculated as (O.D. 540nm treatment group/O.D. 540nm control group) × 100%."}, "EIF2S2": {"test_system": "EIF2S2", "assay": "SILAC phosphoproteomics in A549 cells, EIF2S2", "assay_type": "cell-based", "conditions": "8 μM, 8 h, treated versus untreated", "protocol": "(§2) A549 cells were cultured in F12 and supplemented with either (U‐12C6)‐L‐lysine (light) or (U‐13C6)‐L‐lysine (heavy) for at least eight generations. The heavy labeling efficiency was measured by mass spectrometer analysis. Cells were continuously maintained in SILAC medium until they reached the desired confluence. Cells were treated with 8 μM of Ibr‐7 for 8 h, and then harvested by trypsinization. The enriched fractions were analyzed by mass spectrometry."}, "PI3Ka": {"molecular_target": "PI3Ka (Homo sapiens, UniProt P42336)", "sequence (P42336 whole entry)": "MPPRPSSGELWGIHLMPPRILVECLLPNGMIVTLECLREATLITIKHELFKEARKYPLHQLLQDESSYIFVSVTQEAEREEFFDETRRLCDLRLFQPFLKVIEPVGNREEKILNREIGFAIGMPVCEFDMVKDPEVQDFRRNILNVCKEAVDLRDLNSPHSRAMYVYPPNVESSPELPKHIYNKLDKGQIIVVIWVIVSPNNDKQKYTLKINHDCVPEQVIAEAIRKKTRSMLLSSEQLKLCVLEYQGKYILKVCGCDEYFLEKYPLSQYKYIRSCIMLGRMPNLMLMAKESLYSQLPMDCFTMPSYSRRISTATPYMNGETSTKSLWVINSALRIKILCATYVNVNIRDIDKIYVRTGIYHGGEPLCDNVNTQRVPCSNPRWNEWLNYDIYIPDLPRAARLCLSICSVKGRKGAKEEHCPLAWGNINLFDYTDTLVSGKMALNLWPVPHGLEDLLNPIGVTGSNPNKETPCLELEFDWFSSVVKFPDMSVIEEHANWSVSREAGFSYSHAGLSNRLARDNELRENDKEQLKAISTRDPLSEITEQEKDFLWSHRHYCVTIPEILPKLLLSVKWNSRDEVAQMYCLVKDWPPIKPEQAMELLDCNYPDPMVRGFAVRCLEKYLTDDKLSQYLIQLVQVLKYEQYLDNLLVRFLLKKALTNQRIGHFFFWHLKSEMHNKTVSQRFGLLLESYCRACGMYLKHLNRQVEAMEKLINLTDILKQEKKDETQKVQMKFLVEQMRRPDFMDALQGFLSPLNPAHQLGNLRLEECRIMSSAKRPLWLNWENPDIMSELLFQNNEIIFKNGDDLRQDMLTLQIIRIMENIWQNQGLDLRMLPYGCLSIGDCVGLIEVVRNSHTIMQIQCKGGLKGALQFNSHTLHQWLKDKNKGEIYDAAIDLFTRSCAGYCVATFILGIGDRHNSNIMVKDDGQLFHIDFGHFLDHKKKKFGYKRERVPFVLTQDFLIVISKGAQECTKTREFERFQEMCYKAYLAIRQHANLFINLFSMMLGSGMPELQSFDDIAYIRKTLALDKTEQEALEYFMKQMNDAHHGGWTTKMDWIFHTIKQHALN", "sequence (P27986 whole entry partner)": "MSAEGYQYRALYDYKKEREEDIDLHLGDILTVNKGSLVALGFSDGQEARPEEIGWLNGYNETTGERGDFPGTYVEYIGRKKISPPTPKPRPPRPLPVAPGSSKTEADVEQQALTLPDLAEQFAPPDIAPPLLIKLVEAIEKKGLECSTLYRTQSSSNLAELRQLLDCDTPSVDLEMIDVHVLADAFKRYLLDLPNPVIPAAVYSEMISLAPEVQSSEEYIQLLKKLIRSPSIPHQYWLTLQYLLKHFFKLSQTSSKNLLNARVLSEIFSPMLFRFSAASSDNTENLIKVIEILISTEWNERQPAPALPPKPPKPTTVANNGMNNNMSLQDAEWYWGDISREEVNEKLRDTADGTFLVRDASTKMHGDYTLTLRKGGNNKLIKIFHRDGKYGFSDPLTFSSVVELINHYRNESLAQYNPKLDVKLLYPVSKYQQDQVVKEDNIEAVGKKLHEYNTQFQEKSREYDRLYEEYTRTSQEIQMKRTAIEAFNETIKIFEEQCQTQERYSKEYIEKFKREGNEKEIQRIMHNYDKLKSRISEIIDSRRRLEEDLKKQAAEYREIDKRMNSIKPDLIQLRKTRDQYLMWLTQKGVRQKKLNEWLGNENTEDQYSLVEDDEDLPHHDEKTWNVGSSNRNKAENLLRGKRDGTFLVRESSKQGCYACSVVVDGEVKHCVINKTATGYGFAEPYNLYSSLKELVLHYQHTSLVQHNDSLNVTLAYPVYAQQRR", "assay": "Kinase inhibition ELISA, PI3Ka", "assay_type": "biochemical", "conditions": "ELISA kinase assay", "description": "(§3) ELISA was used to determine the inhibitory effect of Ibr‐7 on five kinases after molecular modification. […] Since p‐S6 is the downstream functional factor that controls the translational process, we attempted to determine the role of p‐S6 in the Ibr‐7 antitumor effect."}, "H460 cells": {"test_system": "H460 cells", "assay": "CCK-8 cell viability assay, H460", "assay_type": "cell-based", "conditions": "Homo sapiens, NCI-H460; CCK-8, 48 h, EGFR wild-type", "protocol": "as §1"}, "A549 xenograft": {"test_system": "A549 xenograft", "assay": "A549 tumor xenograft assay", "assay_type": "in vivo", "conditions": "A549 xenograft nude mice, 60 mg·kg^−1 intragastric twice per day", "protocol": "All animal experiments were conducted according to the Institutional Animal Care and Use Committee (IACUC). A total of 5 × 10^6 A549 cells was resuspended in 200 μL PBS and injected subcutaneously into each 4‐week‐old female nude mice. Once the tumor volume had reached 100–200 mm^3, six mice were randomized into each group. […] Then, 2.375 mL of 20% HP‐beta‐cyclodextrin was added to the above mixture to make a final concentration of 6 mg·mL^−1. […] Tumor volumes were determined from caliper measurements of tumor length (L) and width (W) according to the formula (L × W^2)/2. The relative tumor volume (RTV) was calculated using the following formula: RTV = (tumor volume on measured day)/(tumor volume on day 0)."}, "RPS6KA1": {"test_system": "RPS6KA1", "assay": "SILAC phosphoproteomics in A549 cells, RPS6KA1", "assay_type": "cell-based", "conditions": "8 μM, 8 h, treated versus untreated", "protocol": "as §2"}, "AKT1": {"molecular_target": "AKT1 (Homo sapiens, UniProt P31749)", "sequence (P31749 whole entry)": "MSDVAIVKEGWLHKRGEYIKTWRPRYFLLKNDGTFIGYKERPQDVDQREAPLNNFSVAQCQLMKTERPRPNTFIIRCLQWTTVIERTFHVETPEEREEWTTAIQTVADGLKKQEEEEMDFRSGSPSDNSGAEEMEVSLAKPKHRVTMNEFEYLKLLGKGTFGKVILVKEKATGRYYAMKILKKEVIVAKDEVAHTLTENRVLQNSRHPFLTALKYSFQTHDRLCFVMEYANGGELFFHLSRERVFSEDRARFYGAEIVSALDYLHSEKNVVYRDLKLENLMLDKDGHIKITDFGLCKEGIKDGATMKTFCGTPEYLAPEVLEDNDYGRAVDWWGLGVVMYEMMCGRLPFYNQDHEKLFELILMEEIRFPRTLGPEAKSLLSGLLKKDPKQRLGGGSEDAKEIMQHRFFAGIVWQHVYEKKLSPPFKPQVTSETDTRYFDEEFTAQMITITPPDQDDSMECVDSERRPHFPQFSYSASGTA", "assay": "Kinase inhibition ELISA, AKT1", "assay_type": "biochemical", "conditions": "ELISA kinase assay", "description": "as §3"}, "mTOR [2]": {"molecular_target": "mTOR (Homo sapiens, UniProt P42345)", "assay": "Kinase inhibition ELISA, mTOR", "assay_type": "biochemical", "conditions": "ELISA kinase assay", "description": "as §3"}, "PC-9 cells": {"test_system": "PC-9 cells", "assay": "CCK-8 cell viability assay, PC-9", "assay_type": "cell-based", "conditions": "Homo sapiens, CCK-8, 48 h, EGFR exon 19 deletion", "protocol": "as §1"}, "EGFR [3]": {"molecular_target": "T1, EGFR (Homo sapiens, UniProt P00533)", "T1 sequence (P00533 25-1210)": "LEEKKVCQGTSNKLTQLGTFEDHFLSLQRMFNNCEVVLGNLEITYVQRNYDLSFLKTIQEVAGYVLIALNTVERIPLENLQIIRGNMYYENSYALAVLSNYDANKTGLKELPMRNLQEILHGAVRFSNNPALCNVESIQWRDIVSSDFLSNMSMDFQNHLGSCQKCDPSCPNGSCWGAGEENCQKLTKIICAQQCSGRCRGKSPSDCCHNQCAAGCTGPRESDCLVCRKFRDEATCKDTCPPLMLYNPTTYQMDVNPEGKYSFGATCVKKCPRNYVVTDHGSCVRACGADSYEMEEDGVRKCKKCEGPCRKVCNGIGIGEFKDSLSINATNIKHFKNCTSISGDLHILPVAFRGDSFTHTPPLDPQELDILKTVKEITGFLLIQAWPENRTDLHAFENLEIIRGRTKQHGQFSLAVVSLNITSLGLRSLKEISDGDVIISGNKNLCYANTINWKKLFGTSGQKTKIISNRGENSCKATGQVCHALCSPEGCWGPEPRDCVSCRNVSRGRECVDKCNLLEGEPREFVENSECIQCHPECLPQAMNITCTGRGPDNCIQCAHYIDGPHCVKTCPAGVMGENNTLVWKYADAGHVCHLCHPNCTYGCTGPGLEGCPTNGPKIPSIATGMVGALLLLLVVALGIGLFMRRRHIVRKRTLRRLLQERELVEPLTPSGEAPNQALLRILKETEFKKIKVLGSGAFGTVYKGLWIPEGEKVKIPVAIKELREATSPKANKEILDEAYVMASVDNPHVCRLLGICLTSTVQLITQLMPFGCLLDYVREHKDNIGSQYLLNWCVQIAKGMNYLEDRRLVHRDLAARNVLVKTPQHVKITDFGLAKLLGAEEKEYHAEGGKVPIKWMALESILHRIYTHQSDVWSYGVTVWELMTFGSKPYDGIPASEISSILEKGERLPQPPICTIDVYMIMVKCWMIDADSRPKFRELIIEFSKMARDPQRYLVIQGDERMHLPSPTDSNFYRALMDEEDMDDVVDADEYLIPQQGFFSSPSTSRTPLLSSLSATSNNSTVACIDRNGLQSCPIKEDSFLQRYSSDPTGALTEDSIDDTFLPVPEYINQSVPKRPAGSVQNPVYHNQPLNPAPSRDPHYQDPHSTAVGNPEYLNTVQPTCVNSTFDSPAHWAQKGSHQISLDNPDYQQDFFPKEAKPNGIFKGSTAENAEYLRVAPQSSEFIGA", "assay": "SILAC phosphoproteomics in A549 cells, EGFR", "assay_type": "cell-based", "conditions": "8 μM, 8 h, treated versus untreated", "protocol": "as §2"}, "[4]": {"assay": "Pharmacokinetics in SD rat", "assay_type": "in vivo", "conditions": "po, intragastric 30 mg/kg", "protocol": "Table S3. PK parameters of Ibr-7 in SD rat (i.g 30 mg/kg). Ibr-7 was orally administrated at the dose of 30 mg/kg. At each time point, 0.1 ml of rat blood was gained through retro-orbital plexus and then centrifuged at 5,000 rpm, 4 ℃ for 10 min. 10 μl of sample was mixed with 100 μl of internal reference (Buspirone 50 ng/ml, terfenadine 50 ng/ml), and vortexed for 60 s. After centrifuging at 12,000 rpm for 3 min, the supernatant was collected and transferred to an equal volume of distilled water into the 96-well plate. The final injection volume was 10 μl. Samples were analyzed by LC-MS/MS (API 4000QTRAP) and data was processed by Analyst v 1.5.1."}, "RPS6": {"test_system": "RPS6", "assay": "SILAC phosphoproteomics in A549 cells, RPS6", "assay_type": "cell-based", "conditions": "8 μM, 8 h, treated versus untreated", "protocol": "as §2"}, "mTOR [5]": {"test_system": "mTOR", "assay": "SILAC phosphoproteomics in A549 cells, mTOR", "assay_type": "cell-based", "conditions": "8 μM, 8 h, treated versus untreated", "protocol": "as §2"}, "LARP1": {"test_system": "LARP1", "assay": "SILAC phosphoproteomics in A549 cells, LARP1", "assay_type": "cell-based", "conditions": "8 μM, 8 h, treated versus untreated", "protocol": "as §2"}, "EGFR [6]": {"molecular_target": "T1, EGFR", "assay": "Kinase inhibition ELISA, EGFR", "assay_type": "biochemical", "conditions": "ELISA kinase assay", "description": "as §3"}, "p70S6K": {"molecular_target": "p70S6K (Homo sapiens, UniProt P23443)", "sequence (P23443 whole entry)": "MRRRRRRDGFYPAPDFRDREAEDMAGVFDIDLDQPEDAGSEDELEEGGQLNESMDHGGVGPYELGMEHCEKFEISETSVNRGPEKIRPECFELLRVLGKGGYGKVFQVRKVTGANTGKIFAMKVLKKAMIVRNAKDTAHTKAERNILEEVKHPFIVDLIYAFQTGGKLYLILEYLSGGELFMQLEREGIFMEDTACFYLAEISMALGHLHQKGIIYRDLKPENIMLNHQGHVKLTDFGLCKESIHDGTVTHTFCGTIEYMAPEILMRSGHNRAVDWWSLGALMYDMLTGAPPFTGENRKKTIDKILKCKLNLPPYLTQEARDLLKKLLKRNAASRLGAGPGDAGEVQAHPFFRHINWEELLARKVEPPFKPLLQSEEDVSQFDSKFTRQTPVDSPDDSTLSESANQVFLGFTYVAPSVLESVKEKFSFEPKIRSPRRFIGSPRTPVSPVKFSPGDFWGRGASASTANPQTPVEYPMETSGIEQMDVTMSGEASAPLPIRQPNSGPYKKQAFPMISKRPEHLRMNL", "assay": "Kinase inhibition ELISA, p70S6K", "assay_type": "biochemical", "conditions": "ELISA kinase assay", "description": "as §3"}},
  "note": "Residues, ends and D or L forms follow the SMILES beside them. *: point of attachment. Cbz = O=C(OCc1ccccc1)*",
  "data": [
    {"compound": "CC1(C)CCC(CN2CCN(c3ccc(C(=O)NS(=O)(=O)c4ccc(NCC5CCOCC5)c([N+](=O)[O-])c4)c(Oc4cnc5[nH]ccc5c4)c3)CC2)=C(c2ccc(Cl)cc2)C1", "note": "[ABT‐199]", "values": [
      {"measurement": "IC50", "setting": "H1975 cells", "value": "> 10", "unit": "µM"},
      {"measurement": "Mcl-1 band intensity", "setting": "Mcl-1", "value": 1.30},
      {"measurement": "IC50", "setting": "A549 cells", "value": "> 10", "unit": "µM"}
    ]},
    {"compound": "C=CC(=O)Nc1cc(Nc2nccc(-c3cn(C)c4ccccc34)n2)c(OC)cc1N(C)CCN(C)C", "note": "[AZD‐9291]", "values": [
      {"measurement": "viability at 4 µM", "setting": "[1]", "value": 57, "unit": "%"}
    ]},
    {"compound": "C=C(Br)C(=O)N1CCCC(n2nc(-c3ccc(Oc4ccccc4)cn3)c3c(N)ncnc32)C1", "note": "(centres unmarked) [Ibr‐7]", "values": [
      {"measurement": "Decrease fold of phosphorylated EIF2S2, position 67", "setting": "EIF2S2", "value": 1.99, "unit": "fold"},
      {"measurement": "Decrease fold of phosphorylated EIF2S2, position 111", "setting": "EIF2S2", "value": 1.58, "unit": "fold"},
      {"measurement": "IC50", "setting": "PI3Ka", "value": "> 1", "unit": "µM"},
      {"measurement": "IC50", "setting": "H460 cells", "value": "1 to 4", "unit": "µM"},
      {"measurement": "anti-tumor activity by relative tumor volume (RTV)", "setting": "A549 xenograft", "value": "the same anti‐tumor activity as ibrutinib"},
      {"measurement": "effect on mice bodyweight", "setting": "A549 xenograft", "value": "without affecting the mice bodyweight"},
      {"measurement": "IC50", "setting": "H1975 cells", "value": "1 to 4", "unit": "µM"},
      {"measurement": "Decrease fold of phosphorylated RPS6KA1, position 359", "setting": "RPS6KA1", "value": 1.59, "unit": "fold"},
      {"measurement": "Decrease fold of phosphorylated RPS6KA1, position 363", "setting": "RPS6KA1", "value": 1.54, "unit": "fold"},
      {"measurement": "IC50", "setting": "AKT1", "value": "> 1", "unit": "µM"},
      {"measurement": "IC50", "setting": "mTOR [2]", "value": "> 1", "unit": "µM"},
      {"measurement": "viability at 4 µM", "setting": "[1]", "value": 40.3, "unit": "%"},
      {"measurement": "IC50", "setting": "PC-9 cells", "value": "1 to 4", "unit": "µM"},
      {"measurement": "Decrease fold of phosphorylated EGFR, position 693", "setting": "EGFR [3]", "value": 1.76, "unit": "fold"},
      {"measurement": "Decrease fold of phosphorylated EGFR, position 991", "setting": "EGFR [3]", "value": 2.03, "unit": "fold"},
      {"measurement": "Cmax", "setting": "[4]", "value": 0.304, "unit": "µg/mL"},
      {"measurement": "Decrease fold of phosphorylated RPS6, position 244", "setting": "RPS6", "value": 2.17, "unit": "fold"},
      {"measurement": "Decrease fold of phosphorylated mTOR, position 2481", "setting": "mTOR [5]", "value": 2.23, "unit": "fold"},
      {"measurement": "Decrease fold of phosphorylated LARP1, position 548", "setting": "LARP1", "value": 1.90, "unit": "fold"},
      {"measurement": "Decrease fold of phosphorylated LARP1, position 766", "setting": "LARP1", "value": 4.70, "unit": "fold"},
      {"measurement": "Decrease fold of phosphorylated LARP1, position 824", "setting": "LARP1", "value": 2.34, "unit": "fold"},
      {"measurement": "IC50", "setting": "A549 cells", "value": "1 to 4", "unit": "µM"},
      {"measurement": "IC50", "setting": "EGFR [6]", "value": 0.061, "unit": "µM"},
      {"measurement": "IC50", "setting": "p70S6K", "value": "> 1", "unit": "µM"}
    ]},
    {"compound": "CC(C)C[C@@H](C=O)NC(=O)[C@H](CC(C)C)NC(=O)[C@H](CC(C)C)NC(=O)OCc1ccccc1", "note": "[MG‐132] (Cbz-Leu-Leu-Leu-aldehyde)", "values": [
      {"measurement": "cytotoxicity on A549 cells", "setting": "A549 cells; 10 μM, 24 h, CCK-8", "value": "no cytotoxicity effect"}
    ]},
    {"compound": "C=CC(=O)N1CCC[C@@H](n2nc(-c3ccc(Oc4ccccc4)cc3)c3c(N)ncnc32)C1", "note": "[ibrutinib, Ibrutinib, reference compound]", "values": [
      {"measurement": "IC50", "setting": "PI3Ka", "value": "> 1", "unit": "µM"},
      {"measurement": "IC50", "setting": "mTOR [2]", "value": "> 1", "unit": "µM"},
      {"measurement": "viability at 4 µM", "setting": "[1]", "value": 88.1, "unit": "%"}
    ]}
  ]
}
